Consider seven compounds from patent US11845727B2, “Aldehyde and ketone derivatives of psilocybin and methods of using” (Enveric B[…] Inc., priority 2020, dated 2023).

One assay has as its target T1, 5-HT1A receptor (Homo sapiens, UniProt P08908).
T1 construct: host or cells: CHO-K1 (co-expressing Gα15)
T1 sequence (P08908 1-422): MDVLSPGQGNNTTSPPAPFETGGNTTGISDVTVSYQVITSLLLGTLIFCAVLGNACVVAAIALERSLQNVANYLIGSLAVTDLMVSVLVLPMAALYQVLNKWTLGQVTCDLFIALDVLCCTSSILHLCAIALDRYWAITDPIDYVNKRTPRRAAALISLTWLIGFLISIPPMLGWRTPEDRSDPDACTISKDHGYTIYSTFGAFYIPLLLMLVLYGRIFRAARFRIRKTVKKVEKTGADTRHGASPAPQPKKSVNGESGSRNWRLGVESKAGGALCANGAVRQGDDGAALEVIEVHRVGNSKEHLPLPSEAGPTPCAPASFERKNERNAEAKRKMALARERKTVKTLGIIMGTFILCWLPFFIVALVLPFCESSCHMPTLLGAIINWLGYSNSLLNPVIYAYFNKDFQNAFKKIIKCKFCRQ
The assay is described as follows: cAMP-Glo assay with fixed forskolin in +5-HT1A cells (CHO-K1/5-HT1A/Gα15). It is filed as cell-based. As to conditions: fixed (4 μM) forskolin; for 5-HT1A receptor modulation (conclusion from cAMP/luminescence trend) / % cAMP levels as dosages of compound decrease: +5HT1A cell cultures; for luminescence as dosages of ligand decrease: +5HT1A cell culture, reduced luminescence = increased cAMP. An excerpt: (§1) CHO-K1/Gα15 (GenScript, M00257) (−5-HT1A) and CHO-K1/5-HT1A/Gα15 (GenScript, M00330) (+5-HT1A) cells lines were used. Briefly, CHO-K1/Gα15 is a control cell line that constitutively expresses Gα15 which is a promiscuous Gq protein. This control cell line lacks any transgene encoding 5-HT1A receptors, but still responds to forskolin; thus, cAMP response to forskolin should be the same regardless of whether or not 5-HT1A agonists are present. Conversely, CHO-K1/5-HT1A/Gα15 cells stably express 5-HT1A receptor in the CHO-K1 host background. […] In +5-HT1A cells, Gα15 may be recruited in place of Gαi/o, which could theoretically dampen cAMP response (Rojas and Fiedler 2016, Front Cell Neurosci 10: 272). […] In contrast, tryptophan is not known to activate, or modulate in any way, 5-HT1A receptors, and was thus used as a negative control. Cells were maintained in complete growth media as recommended by supplier (GenScript) which is constituted as follows: Ham's F12 Nutrient mix (HAM's F12, GIBCO #11765-047) with 10% fetal bovine serum (FBS) (Thermo Scientific #12483020), 200 μg/ml zeocin (Thermo Scientific #R25005) and/or 100 μg/ml hygromycin (Thermo Scientific #10687010). The cells were cultured in a humidified incubator with 37° C. and 5% CO2. Cells maintenance was carried out as recommended by the cell supplier. Briefly, vials with cells were removed from the liquid nitrogen and thawed quickly in 37° C. water bath. Just before the cells were completely thawed the vial's outside was decontaminated by 70% ethanol spray. The cell suspension was then retrieved from the vial and added to warm (37° C.) complete growth media, and centrifuged at 1,000 rpm for 5 minutes. The supernatant was discarded, and the cell pellet was then resuspended in another 10 ml of complete growth media, and added to the 10 cm cell culture dish (Greiner Bio-One #664160). The media was changed every third day until the cells were about 90% confluent. The ˜90% confluent cells were then split 10:1 for maintenance or used for experiment.
As 5-HT1A activation inhibits cAMP formation, the ability of test molecules to modulate the 5-HT1A receptor response was measured via changes in the levels of cAMP produced due to application of 4 μM forskolin. The change in intracellular cAMP levels due to the treatment of novel molecules was measured using cAMP-Glo Assay kit (Promega # V1501). Briefly, +5-HT1A cells were seeded on 1-6 columns and base −5-HT1A cells were seeded on columns 7-12 of the white walled clear bottom 96-well plate (Corning, #3903). Both cells were seeded at the density of 30,000 cells/well in 100 μl complete growth media and cultured 24 hrs in humidified incubator at 37° C. and 5% CO2. On the experiment day, the media of cells was replaced with serum/antibiotic free culture media. Then the cells were treated for 20 minutes with test molecules dissolved in induction medium (serum/antibiotic free culture media containing 4 μM forskolin, 500 μM IBMX (isobutyl-1-methylxanthine, Sigma-Aldrich, Cat. #17018) and 100 μM (RO 20-1724, Sigma-Aldrich, Cat. #68279)). Forskolin induced cAMP formation whereas IBMX and RO 20-1724 inhibited the degradation of cAMP. PKA was added to the lysate, mixed, and subsequently the substrate of the PKA was added. PKA was activated by cAMP, and the amount of ATP consumed due to PKA phosphorylation directly corresponded to cAMP levels in the lysate. Reduced ATP caused reduced conversion of luciferin to oxyluciferin, conferring diminished luminescence as the result of 5-HT1A activation. Conversely, enhanced luminescence was expected in cases where 5-HT1A receptor modulation—imparted by a test molecule—caused downstream increases in ATP, thus imparting enhanced conversion of luciferin to oxyluciferin.
A general note: Changes in cAMP serve as a functional read-out for many G protein-coupled receptors.

Assay [1] deals with CHO-K1/Gα15 (−5-HT1A) cells. The assay is described as follows: cAMP-Glo assay with fixed forskolin in −5-HT1A control cells (CHO-K1/Gα15). The note with it: fixed (4 μM) forskolin. The format is cell-based.
From the text: as §1
As 5-HT1A activation inhibits cAMP formation, the ability of test molecules to modulate the 5-HT1A receptor response was measured via changes in the levels of cAMP produced due to application of 4 μM forskolin. The change in intracellular cAMP levels due to the treatment of novel molecules was measured using cAMP-Glo Assay kit (Promega # V1501). […] Reduced ATP caused reduced conversion of luciferin to oxyluciferin, conferring diminished luminescence as the result of 5-HT1A activation. Conversely, enhanced luminescence was expected in cases where 5-HT1A receptor modulation—imparted by a test molecule—caused downstream increases in ATP, thus imparting enhanced conversion of luciferin to oxyluciferin.

The target of another assay is T2, 5-HT2A receptor (Homo sapiens, UniProt P28223).
T2 construct: purchased PerkinElmer ES-313-M400UA
T2 sequence (P28223 whole entry): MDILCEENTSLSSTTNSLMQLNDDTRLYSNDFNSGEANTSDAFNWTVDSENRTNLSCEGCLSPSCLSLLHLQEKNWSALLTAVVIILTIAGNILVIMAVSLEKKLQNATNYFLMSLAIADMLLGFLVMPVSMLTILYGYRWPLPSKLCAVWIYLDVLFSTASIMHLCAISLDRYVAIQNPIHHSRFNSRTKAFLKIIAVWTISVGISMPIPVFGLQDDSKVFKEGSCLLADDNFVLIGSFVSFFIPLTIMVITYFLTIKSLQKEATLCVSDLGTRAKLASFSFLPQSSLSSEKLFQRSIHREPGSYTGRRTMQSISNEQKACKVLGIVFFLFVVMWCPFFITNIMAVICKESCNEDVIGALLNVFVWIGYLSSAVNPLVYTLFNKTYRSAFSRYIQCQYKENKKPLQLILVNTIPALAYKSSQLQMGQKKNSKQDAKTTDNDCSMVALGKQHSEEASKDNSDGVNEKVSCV
The assay is described as follows: [3H]ketanserin competition binding assay (SPA) at the 5-HT2A receptor. The note with it: fixed (1 nM) [3H]ketanserin, membranes containing 5-HT2A. The source says: Evaluation of drug binding is an essential step to characterization of all drug-target interactions (Fang 2012, Exp Opin Drug Discov 7:969). The binding affinity of a drug to a target is traditionally viewed as an acceptable surrogate of its in vivo efficacy (Núñez et al., 2012, Drug Disc Today 17: 10). Competition assays, also called displacement or modulation binding assays, are a common approach to measure activity of a ligand at a target receptor (Flanagan 2016, Methods Cell Biol 132: 191). In these assays, standard radioligands acting either as agonists or antagonists are ascribed to specific receptors. […] After incubation, the samples were read on a MicroBeta 2 Microplate Counter (Perkin Elmer). […] Equilibrium binding constants for ketanserin (Kd) were determined from saturation binding curves using the ‘one-site saturation binding analysis’ method of GraphPad PRISM software (Version 9.2.0). […] Ki values were calculated from the competition displacement data using the competitive binding analysis from GraphPad PRISM software. […] Specific binding in counts per minute (cpm) was calculated by subtracting non-specific binding from total binding. Specific binding (pmol/mg) was calculated from pmol of [^3H]ketanserin bound per mg of protein in the assay. The Kd was calculated by fitting the data with the one-site binding model of PRISM software (version 9.2.0).

Structures are written as SMILES.

On to `NCCc1c[nH]c2ccc(O)cc12` [serotonin], for which, on 5-HT1A receptor, the “5-HT1A receptor modulation (conclusion from cAMP/luminescence trend)” value is listed as 5-HT1A binding activity and the “% cAMP levels as dosages of compound decrease” value is recorded as “increased % cAMP levels”. Further, the “trend of % cAMP levels with decreasing compound in −5HT1A cell cultures” value in assay [1] is “not observed”.

`COc1ccc(C=O)c2[nH]cc(CCN)c12` [compound (X), 4-O-methyl-7-formyl psilocybin derivative]: at 5-HT1A receptor, the “5-HT1A receptor modulation (conclusion from cAMP/luminescence trend)” value is listed as “modulate 5-HT1A response” and the “% cAMP levels as dosages of compound decrease” value is on record as “decreased % cAMP levels”. Further, in assay [1], the “trend of % cAMP levels with decreasing compound in −5HT1A cell cultures” value is “not observed”.

In the case of `CN(C)CCc1c[nH]c2ccccc12` [DMT], at 5-HT1A receptor, the “luminescence as dosages of ligand decrease” value is listed as “reduced luminescence” and the “5-HT1A receptor modulation (conclusion from cAMP/luminescence trend)” value is given as 5-HT1A activity.

In the case of `CCN(CC)CCc1c[nH]c2c(C=O)ccc(O)c12` [compound (VIII), N,N-diethyl-7-formyl psilocybin derivative], on 5-HT1A receptor, the “5-HT1A receptor modulation (conclusion from cAMP/luminescence trend)” value is given as 5-HT1A modulation activity and the “% cAMP levels as dosages of compound decrease” value was “increased % cAMP levels”. Moreover, the “trend of % cAMP levels with decreasing compound in −5HT1A cell cultures” value in assay [1] was “not observed”.

For the compound `N[C@@H](Cc1c[nH]c2ccccc12)C(=O)O` [tryptophan], at 5-HT2A receptor, the “competition binding curve at the 5-HT2A receptor” value is “no binding”. Moreover, on 5-HT1A receptor, the “luminescence as dosages of ligand decrease” value is reported as “no trend in luminescence” and the “5-HT1A receptor modulation (conclusion from cAMP/luminescence trend)” value was “lack of 5-HT1A modulation”.

For the compound `CCCCN(CCCC)CCc1c(C=O)[nH]c2cccc(OC)c12` [compound (XII)], at 5-HT1A receptor, the “5-HT1A receptor modulation (conclusion from cAMP/luminescence trend)” value is 5-HT1A modulation activity and the “% cAMP levels as dosages of compound decrease” value is given as “decreased % cAMP levels”. In addition, the “trend of % cAMP levels with decreasing compound in −5HT1A cell cultures” value in assay [1] is on record as “not observed”.

`CN(C)CCc1c[nH]c2cccc(O)c12` [psilocin]: the “competition binding curve at the 5-HT2A receptor” value on 5-HT2A receptor is “binding”.
